Test results from patent publication US11130793B2, “GLP-1/GLP-2 dual agonists” (Zealand Pharma A/S, priority 2016, dated 2021).
Square brackets hold non-standard residues; d marks the D form. Peptide text beside a SMILES is read from it. Aib = CC(C)(N)C(=O)O

Legend:
human GLP-1 receptor = target: T1, human GLP-1 receptor (Homo sapiens, UniProt P43220); experiment: GLP-1 receptor potency assay (cAMP AlphaScreen, HEK293 cells stably expressing GLP-1R); assay type: cell-based; conditions: cAMP response, HEK293 cells expressing human GLP-1R; read-out: EC50 GLP-1
T1 construct: expressed in transfected cells
Description: (§1) One useful in vitro assay for measuring GLP-1 and GLP-2 receptor activity is quantitation of cAMP, i.e. 3′-5′-cyclic adenosine monophosphate, which is a second messenger essential in many biological processes, and one of the most ubiquitous mechanisms for regulating cellular functions. […] Test compounds eliciting an increase in the intracellular level of cAMP can be tested in these assays, and the response normalized relative to a positive and negative control (vehicle) to calculate the EC50 and maximal response from the concentration response curve using the 4-parameter logistic (4PL) nonlinear model for curve fitting.
The cDNA encoding the human glucagon-like peptide 1 receptor (GLP-1R) (primary accession number P43220) was cloned from the cDNA BC112126 (MGC:138331/IMAGE:8327594). The DNA encoding the GLP-1-R was amplified by PCR using primers encoding terminal restriction sites for subcloning. The 5′-end primers additionally encoded a near Kozak consensus sequence to ensure efficient translation. […] The PCR products encoding the GLP-1-R were subcloned into a mammalian expression vector containing a neomycin (G418) resistance marker. The mammalian expression vectors encoding the GLP-1-R were transfected into HEK293 cells by a standard calcium phosphate transfection method. 48 hours post-transfection, cells were seeded for limited dilution cloning and selected with 1 mg/ml G418 in the culture medium. Following 3 weeks in G418 selection clones were picked and tested in a functional GLP-1 receptor potency assay as described below.
(§2) The cAMP AlphaScreen assay from Perkin Elmer was used to quantitate the cAMP response to activation of the GLP1 and GLP2 receptor, respectively. […] Data from test compounds eliciting an increase in the intracellular level of cAMP were normalized relative to the positive and negative control (vehicle) to calculate the EC50 and maximal response from the concentration response curve.

human GLP-2 receptor = target: T2, human GLP-2 receptor (Homo sapiens, UniProt O95838, D470N); experiment: GLP-2 receptor potency assay (cAMP AlphaScreen, HEK293 cells stably expressing GLP-2R); assay type: cell-based; conditions: cAMP response, HEK293 cells expressing human GLP-2R
T2 sequence (O95838 1-553 D470N): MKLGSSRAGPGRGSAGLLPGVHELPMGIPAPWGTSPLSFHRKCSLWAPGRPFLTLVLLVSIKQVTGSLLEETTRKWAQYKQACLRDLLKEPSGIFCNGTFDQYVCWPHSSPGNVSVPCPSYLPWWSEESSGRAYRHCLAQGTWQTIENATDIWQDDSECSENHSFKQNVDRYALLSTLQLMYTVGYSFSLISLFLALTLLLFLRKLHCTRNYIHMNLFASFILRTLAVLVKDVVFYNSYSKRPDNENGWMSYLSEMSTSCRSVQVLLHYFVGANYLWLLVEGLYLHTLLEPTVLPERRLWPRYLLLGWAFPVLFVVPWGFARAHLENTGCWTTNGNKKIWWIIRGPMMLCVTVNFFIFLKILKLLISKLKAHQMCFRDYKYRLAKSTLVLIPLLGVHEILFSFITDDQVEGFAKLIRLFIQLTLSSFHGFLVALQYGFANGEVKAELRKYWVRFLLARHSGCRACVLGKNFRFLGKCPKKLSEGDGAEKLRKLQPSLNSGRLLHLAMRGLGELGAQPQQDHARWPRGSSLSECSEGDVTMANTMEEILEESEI
Description: as §1
The hGLP2-R was purchased from MRC-geneservice, Babraham, Cambridge as an Image clone: 5363415 (11924-I17). For subcloning into a mammalian expression vector, primers for subcloning were obtained from DNA-Technology, Risskov, Denmark. The 5′ and 3′ primers used for the PCR reaction include terminal restriction sites for cloning and the context of the 5′ primer is modified to a Kozak consensus without changing the sequence of the product encoded by the ORF. A standard PCR reaction was run using Image clone 5363415 (11924-117) as a template with the above mentioned primers and Polymerase Herculase II Fusion in a total vol. of 50 μl. The generated PCR product was purified using GFX PCR and Gel band purification kit, digested with restriction enzymes and cloned into the mammalian expression vector using Rapid DNA Ligation Kit. Ligation reaction was transformed to XL10 Gold Ultracompetent cells and colonies were picked for DNA production using Endofree Plasmid maxi kit. Subsequent sequence analysis was conducted by MWG Eurofins, Germany.
HEK293 cells were transfected using the Lipofectamine PLUS transfection method. The day before transfection, HEK293 cells were seeded in two T75 flasks at a density of 2×10^6 cells/T75 flask in cell culturing medium without antibiotics. On the day of transfection, cells were washed with 1×DPBS and medium was replaced with Optimem to a volume of 5 mL/T75 flask before addition of Lipofectamine-plasmid complexes were added gently and drop wise to the cells in T75 flasks and replaced with growth medium after 3 hours and again to growth medium supplemented with 500 μg/mL G418 after 24 hours. Following 4 weeks in G418 selection, clones were picked and tested in a functional GLP-2 receptor potency assay as described below.
as §2

T1 sequence (P43220 24-463): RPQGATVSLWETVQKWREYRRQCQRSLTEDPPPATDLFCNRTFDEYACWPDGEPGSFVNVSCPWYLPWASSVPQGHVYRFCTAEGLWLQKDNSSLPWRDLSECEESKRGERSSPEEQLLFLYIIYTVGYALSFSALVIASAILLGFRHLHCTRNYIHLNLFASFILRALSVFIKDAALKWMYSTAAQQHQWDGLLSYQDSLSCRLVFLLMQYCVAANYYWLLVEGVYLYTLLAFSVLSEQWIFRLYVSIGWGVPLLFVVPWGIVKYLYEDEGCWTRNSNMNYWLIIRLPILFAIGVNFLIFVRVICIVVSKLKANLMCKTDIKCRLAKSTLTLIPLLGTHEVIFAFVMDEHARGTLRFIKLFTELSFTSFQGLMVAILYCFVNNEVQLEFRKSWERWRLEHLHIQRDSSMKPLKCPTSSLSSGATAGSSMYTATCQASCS

| SMILES | EC50 (human GLP-1 receptor) [pM] | EC50 (human GLP-2 receptor) [pM] |
| --- | --- | --- |
| CC[C@H](C)[C@H](NC(=O)[C@H](Cc1ccccc1)NC(=O)[C@H](CC(=O)O)NC(=O)[C@H](CCCNC(=N)N)NC(=O)[C@H](C)NC(=O)[C@H](C)NC(=O)[C@H](CCC(N)=O)NC(=O)[C@H](CCC(=O)O)NC(=O)[C@H](CC(=O)O)NC(=O)[C@H](CC(C)C)NC(=O)[C@@H](NC(=O)[C@@H](NC(=O)[C@H](C)NC(=O)[C@H](CC(C)C)NC(=O)[C@H](CCC(=O)O)NC(=O)[C@H](CO)NC(=O)[C@@H](NC(=O)[C@H](Cc1ccccc1)NC(=O)[C@@H](NC(=O)CNC(=O)[C@H](CCC(=O)O)NC(=O)C(C)(C)NC(=O)[C@@H](N)Cc1c[nH]cn1)[C@@H](C)O)[C@@H](C)O)[C@@H](C)O)[C@@H](C)CC)C(=O)N[C@@H](CC(N)=O)C(=O)N[C@@H](Cc1c[nH]c2ccccc12)C(=O)N[C@@H](CC(C)C)C(=O)N[C@@H](CCCCN)C(=O)N[C@@H](CCC(=O)O)C(=O)N[C@@H](CCC(N)=O)C(=O)N[C@@H](CCCCN)C(=O)N[C@H](C(=O)N[C@H](C(=O)N[C@@H](CC(=O)O)C(=O)O)[C@@H](C)O)[C@@H](C)CC [Compound 37] (H-H[Aib]EGTFTSELATILDEQAARDFINWLKEQKITD-OH) | 7 | 160 |
| CC[C@H](C)[C@H](NC(=O)[C@H](Cc1ccccc1)NC(=O)[C@H](CC(=O)O)NC(=O)[C@H](CCCNC(=N)N)NC(=O)[C@H](C)NC(=O)[C@H](C)NC(=O)[C@H](CCC(N)=O)NC(=O)[C@H](CCC(=O)O)NC(=O)[C@H](CC(=O)O)NC(=O)[C@H](CC(C)C)NC(=O)[C@@H](NC(=O)[C@@H](NC(=O)[C@H](C)NC(=O)[C@H](CC(C)C)NC(=O)[C@H](CCC(=O)O)NC(=O)[C@H](CO)NC(=O)[C@@H](NC(=O)[C@H](Cc1ccccc1)NC(=O)[C@@H](NC(=O)CNC(=O)[C@H](CCC(=O)O)NC(=O)C(C)(C)NC(=O)[C@@H](N)Cc1c[nH]cn1)[C@@H](C)O)[C@@H](C)O)[C@@H](C)O)[C@@H](C)CC)C(=O)N[C@@H](C)C(=O)N[C@@H](Cc1c[nH]c2ccccc12)C(=O)N[C@@H](CC(C)C)C(=O)N[C@@H](Cc1ccc(O)cc1)C(=O)N[C@@H](C)C(=O)N[C@@H](Cc1c[nH]cn1)C(=O)N[C@@H](CCCCN)C(=O)N[C@H](C(=O)N[C@H](C(=O)N[C@@H](CC(=O)O)C(=O)O)[C@@H](C)O)[C@@H](C)CC [Compound 14] (H-H[Aib]EGTFTSELATILDEQAARDFIAWLYAHKITD-OH) | 21 | 49 |
| CC[C@H](C)[C@H](NC(=O)[C@H](Cc1ccccc1)NC(=O)[C@H](CC(=O)O)NC(=O)[C@H](CCCNC(=N)N)NC(=O)[C@H](C)NC(=O)[C@H](C)NC(=O)[C@H](CCC(N)=O)NC(=O)[C@H](CCC(=O)O)NC(=O)[C@H](CC(=O)O)NC(=O)[C@H](CC(C)C)NC(=O)[C@@H](NC(=O)[C@@H](NC(=O)[C@H](C)NC(=O)[C@H](CC(C)C)NC(=O)[C@H](CCC(=O)O)NC(=O)[C@H](CO)NC(=O)[C@@H](NC(=O)[C@H](Cc1ccccc1)NC(=O)[C@@H](NC(=O)CNC(=O)[C@H](CCC(=O)O)NC(=O)C(C)(C)NC(=O)[C@@H](N)Cc1c[nH]cn1)[C@@H](C)O)[C@@H](C)O)[C@@H](C)O)[C@@H](C)CC)C(=O)N[C@@H](C)C(=O)N[C@@H](Cc1c[nH]c2ccccc12)C(=O)N[C@@H](CC(C)C)C(=O)N[C@H](C(=O)N[C@@H](CO)C(=O)N[C@@H](Cc1c[nH]cn1)C(=O)N[C@@H](CCCCN)C(=O)N[C@H](C(=O)N[C@H](C(=O)N[C@@H](CC(=O)O)C(=O)O)[C@@H](C)O)[C@@H](C)CC)[C@@H](C)CC [Compound 18] (H-H[Aib]EGTFTSELATILDEQAARDFIAWLISHKITD-OH) | 6 | 54 |
| CC[C@H](C)[C@H](NC(=O)[C@H](Cc1ccccc1)NC(=O)[C@H](CC(=O)O)NC(=O)[C@H](CCCNC(=N)N)NC(=O)[C@H](C)NC(=O)[C@H](C)NC(=O)[C@H](CCC(N)=O)NC(=O)[C@H](CCC(=O)O)NC(=O)[C@H](CC(=O)O)NC(=O)[C@H](CC(C)C)NC(=O)[C@@H](NC(=O)[C@@H](NC(=O)[C@H](C)NC(=O)[C@H](CC(C)C)NC(=O)[C@H](CCC(=O)O)NC(=O)[C@H](CO)NC(=O)[C@@H](NC(=O)[C@H](Cc1ccccc1)NC(=O)[C@@H](NC(=O)CNC(=O)[C@H](CCC(=O)O)NC(=O)C(C)(C)NC(=O)[C@@H](N)Cc1c[nH]cn1)[C@@H](C)O)[C@@H](C)O)[C@@H](C)O)[C@@H](C)CC)C(=O)N[C@@H](C)C(=O)N[C@@H](Cc1c[nH]c2ccccc12)C(=O)N[C@@H](CC(C)C)C(=O)N[C@@H](Cc1c[nH]cn1)C(=O)N[C@@H](CCC(N)=O)C(=O)N[C@@H](Cc1c[nH]cn1)C(=O)N[C@@H](CCCCN)C(=O)N[C@H](C(=O)N[C@H](C(=O)N[C@@H](CC(=O)O)C(=O)O)[C@@H](C)O)[C@@H](C)CC [Compound 21] (H-H[Aib]EGTFTSELATILDEQAARDFIAWLHQHKITD-OH) | 49 | 110 |

Second part, the compound after the results:

| EC50 (human GLP-1 receptor) [pM] | EC50 (human GLP-2 receptor) [pM] | SMILES |
| --- | --- | --- |
| 42 | 49 | CC[C@H](C)[C@H](NC(=O)[C@H](Cc1ccccc1)NC(=O)[C@H](CC(=O)O)NC(=O)[C@H](CCCNC(=N)N)NC(=O)[C@H](C)NC(=O)[C@H](C)NC(=O)[C@H](CCC(N)=O)NC(=O)[C@H](CCC(=O)O)NC(=O)[C@H](CC(=O)O)NC(=O)[C@H](CC(C)C)NC(=O)[C@@H](NC(=O)[C@@H](NC(=O)[C@H](C)NC(=O)[C@H](CC(C)C)NC(=O)[C@H](CCC(=O)O)NC(=O)[C@H](CO)NC(=O)[C@@H](NC(=O)[C@H](Cc1ccccc1)NC(=O)[C@H](CO)NC(=O)CNC(=O)[C@H](CCC(=O)O)NC(=O)C(C)(C)NC(=O)[C@@H](N)Cc1c[nH]cn1)[C@@H](C)O)[C@@H](C)O)[C@@H](C)CC)C(=O)N[C@@H](C)C(=O)N[C@@H](Cc1c[nH]c2ccccc12)C(=O)N[C@@H](CC(C)C)C(=O)N[C@@H](CCC(N)=O)C(=O)N[C@@H](C)C(=O)N[C@@H](Cc1c[nH]cn1)C(=O)N[C@@H](CCCCN)C(=O)N[C@H](C(=O)N[C@H](C(=O)N[C@@H](CC(=O)O)C(=O)O)[C@@H](C)O)[C@@H](C)CC [Compound 24] (H-H[Aib]EGSFTSELATILDEQAARDFIAWLQAHKITD-OH) |
| 16 | 83 | CC[C@H](C)[C@H](NC(=O)[C@H](Cc1ccccc1)NC(=O)[C@H](CC(=O)O)NC(=O)[C@H](CCCNC(=N)N)NC(=O)[C@H](C)NC(=O)[C@H](C)NC(=O)[C@H](CCC(N)=O)NC(=O)[C@H](CCC(=O)O)NC(=O)[C@H](CC(=O)O)NC(=O)[C@H](CC(C)C)NC(=O)[C@@H](NC(=O)[C@@H](NC(=O)[C@H](C)NC(=O)[C@H](CC(C)C)NC(=O)[C@H](CCC(=O)O)NC(=O)[C@H](CO)NC(=O)[C@@H](NC(=O)[C@H](Cc1ccccc1)NC(=O)[C@@H](NC(=O)CNC(=O)[C@H](CCC(=O)O)NC(=O)C(C)(C)NC(=O)[C@@H](N)Cc1c[nH]cn1)[C@@H](C)O)[C@@H](C)O)[C@@H](C)O)[C@@H](C)CC)C(=O)N[C@@H](C)C(=O)N[C@@H](Cc1c[nH]c2ccccc12)C(=O)N[C@@H](CC(C)C)C(=O)N[C@@H](CCC(N)=O)C(=O)N[C@@H](C)C(=O)N[C@@H](Cc1c[nH]cn1)C(=O)N[C@@H](CCCCN)C(=O)N[C@H](C(=O)N[C@H](C(=O)N[C@@H](CC(=O)O)C(=O)O)[C@@H](C)O)[C@@H](C)CC [Compound 13] (H-H[Aib]EGTFTSELATILDEQAARDFIAWLQAHKITD-OH) |
